Assay results as given in paper PMC10117725, “From an Hsp90 - binding protein to a peptide drug” (microLife, 2022).
Where no end group is shown, it is not given here.

Experiments:
[1] = tested on: F-actin levels in HaCaT cells; experiment: F-actin measurement (ActinGreen 488 fluorescence) in HaCaT cells; assay type: cell-based, human; conditions: 35 µg/ml peptide (L15 20 µM, L13 30 µM), geldanamycin 5 µM; 1.5 h; ActinGreen 488 fluorescence relative to control
Protocol: About 5 × 10^4 cells were seeded in black flat bottom 96 well cell culture microplate (Greiner, Germany) and incubated overnight. The cells were then incubated with peptides or geldanamycin for 1.5 h. After incubation, the cells were washed, permeabilised with 0.1% (v/v) Triton X-100 and stained with ActinGreen™ 488 ReadyProbes® (Thermo Fischer, Germany) for 30 min. After the staining, the cells were washed and measure for its fluorescence at Excitation/Emission: 495/518 nm (Luqman et al. [2020]).

Lpl1 = target: T1, Lpl1 (Staphylococcus aureus, UniProt Q2FJK4); experiment: Dot blot / immunoblot interaction with Lpl1-his; assay type: binding; conditions: 2 µg blotted, anti-6X His immunodetection
T1 construct: made in house
Protocol: Two µg of each peptide was blotted (dot blot) directly on PDV nitrocellulose membrane and blocked with ROTI®Block (Carl Roth, Germany). After washing, the membrane was then incubated with 20 μg of recombinant Hsp90α (Abcam)/Lpl1-his protein at 4°C overnight. In case of interaction studies with Hsp90α, α-Hsp90α (produced in mouse, Abcam) was used as the primary antibody and for interaction studies with Lpl1-his, Anti-6X His tag antibody (also produced in mouse, Sigma-Aldrich, Germany) was used. Alkaline phosphatase conjugated goat-α-mouse IgG (Sigma-Aldrich, Germany) served as the secondary antibody. Detection was done using BCIP®/NBT solution (Sigma, Germany). Lpl1-his was isolated and purified as described in our previous paper (Tribelli et al. [2020]).

MONO-MAC-6 (MM6) cells = experiment: MTT cytotoxicity in MM6 cells; assay type: cell-based, human; conditions: 24 h
Protocol: (§1) MTT (3-(4,5-dimethylthiazol-2-yl)-2,5-diphenyl tetrazolium bromide) assay was employed to analyze the cytotoxicity of peptides and geldanamycin to the cells. 5 × 10^5 cells were seeded in a 96 flat bottom well plate and incubated for 2.5 or 24 h at 37°C with 5% CO2. The cells were then treated with increasing concentration (0 to 200 µM) of peptides or geldanamycin for 24 h. After the incubation, 10 μl of the MTT labelling reagent is added to each well to attain a final concentration 0.5 mg/ml, followed by 4 h incubation. Metabolically active cells convert the yellow tetrazolium salt to purple formazan crystals, which were solubilized using the solubilization solution (DMSO) and measured for absorbance at λmax/λref–570/690 nm (Saising et al. [2018]).

N/TERT-1 cells = experiment: Cytotoxicity in N/TERT-1 cells at tested concentration; assay type: cell-based, human; conditions: concentrations used in invasion studies (Fig. S1)
Protocol: as §1

S. aureus USA300 = experiment: Galleria mellonella larvae infection model, S. aureus USA300; assay type: in vivo
Protocol: Galleria mellonella larvae, purchased from Feeders & more GmbH, Germany, were sorted based on weight and used within one week. Ten larvae per group with weight average of 500 mg/larvae were injected with bacteria and/or peptides on its last proleg using a BD insulin syringe. The dosage used for the experiment were 60 mg/kg for peptides, 5 mg/kg of geldanamycin and 20 mg/kg for vancomycin. Each larva was injected with 10 µl of L15 (last left proleg) 1 h before administration of 10^6 cfu S. aureus (last right proleg). The larvae were maintained at 37°C and observed for mortality every day over the course of 5 days.

[2] = tested on: phagocytosis by primary human CD14+ monocytes; experiment: Phagocytosis of S. aureus USA300 by CD14+ monocytes; assay type: cell-based; conditions: L15 20 µM, L13 30 µM, geldanamycin 5 µM, 60 min preincubation; MOI 30, 90 min; n = 4 donors; SEM
Protocol: Peripheral Blood Mononuclear cells (PBMCs) were isolated by density gradient centrifugation following the previous study (Nguyen et al. [2022]). From the pool of PBMCs, monocytes were isolated by positive selection with anti-human CD14 microbeads (Miltenyi Biotech, Bergisch-Gladbach, Germany) following a previously reported protocol (Nguyen et al. [2022]). The purity was analysed by flow cytometry on a BD Accuri C6 (BD Biosciences, Heidelberg, Germany) with anti-human CD14-FITC, CD45-PE and propidium iodide (BD Biosciences, Heidelberg, Germany) and ranged from 85% to 98%.
For the phagocytosis, 10^6 CD14^+ monocytes were seeded in 1 ml of medium (RPMI supplemented with L-Glutamine and 10% FCS) in a 12 well plate (Greiner, Germany). The cells were incubated with 20 µM of L15, 30 µM of L13, or 5 µM of Geldanamycin for 60 min at 37°C and 5% CO2 before addition of bacteria. For the phagocytosis assay, bacterial cells were resuspended in 100 µl RPMI medium at MOI of 30 and incubated with monocytes for 90 min. The cells were washed once with PBS and 0.5 ml of medium supplemented with 2.5 µg/ml of Lysostaphin was added for 90 min to remove the extracellular bacteria. Then, monocytes were washed twice with PBS and resuspended in 0.5 ml of milliQ dH2O. The cells were scraped, and the lysed solution was transferred into a new 1.5 ml Eppendorf tube for a 5 min sonication (frequency 80, power 100) at room temperature to prevent the bacterial cell clumping by using ultrasonic water bath Elmasonic P (Elma Schmidbauer Gmb, Singen, Germany). About 10 µl fractions of undiluted, 10^−1, 10^−2, and 10^−3 dilutions were inoculated on tryptic soy agar (TSA) plates and incubated overnight at 37°C. The numbers of internalized bacteria were determined based on the manual counting of bacterial colony forming units (cfu) recovered on the agar plates.

Staphylococcus aureus = experiment: Hemolysin activity on sheep blood agar; assay type: cell-based; conditions: impregnated discs on sheep blood agar, 37°C overnight
Protocol: About 6 mm Whatman empty Antibiotic Assay Discs were impregnated with L15 or L13 and allowed to dry. Once dried, the discs were placed on sheep blood agar plates, inoculated with S. aureus and incubated at 37°C overnight. The halo obtained was measured and compared.

[3] = tested on: total ATPase activity in HaCaT cells; experiment: Total ATPase activity in HaCaT cells; assay type: cell-based, human; conditions: Fig. S4
[4] = tested on: human peripheral blood mononuclear cells (PBMCs); experiment: Cytokine induction in PBMCs (bead-based immunoassay); assay type: cell-based; conditions: IL-6, IL10, IL-12p70, IL12-p40, IL-23, TNFα, IL-1ß, IL-1RA, IP-10, TARC; 20 h
Protocol: Human peripheral blood mononuclear cells (PBMCs) from buffy coat blood samples of healthy donors were stimulated with the indicated doses of L15 and L13 for 20 h. For the subsequent bead-based immunoassay, the cell culture supernatants of a total of four buffy coats per immunoassay were used. Each of the stimulations was performed in biological duplicates. The secreted cytokines were then identified and quantified using the immunofluorescent bead-based immunoassay LEGENDplex® Human Macrophage/Microglia Panel (13-plex) and the corresponding Data Analysis Software from BioLegend. Muramyl Dipeptide (MDP) which activates the NOD-2 receptors was used as the positive control.

T1 sequence (Q2FJK4 23-257): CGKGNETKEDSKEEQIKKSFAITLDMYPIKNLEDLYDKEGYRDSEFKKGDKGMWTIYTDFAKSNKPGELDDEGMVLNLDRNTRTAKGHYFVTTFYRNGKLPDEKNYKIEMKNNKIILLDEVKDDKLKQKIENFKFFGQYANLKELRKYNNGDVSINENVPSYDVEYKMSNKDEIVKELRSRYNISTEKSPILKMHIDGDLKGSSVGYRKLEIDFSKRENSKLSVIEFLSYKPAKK

## GHYFVTTFY [L13]
[1]
  Relative F-actin level in HaCaT: 0.87 ± 0.03
Lpl1
  direct interaction with Lpl1: interact directly
MONO-MAC-6 (MM6) cells; 1 µM
  percentage of viable cells, MM6, 1 µM: 106.71 ± 6.40%
MONO-MAC-6 (MM6) cells; 200 µM
  percentage of viable cells, MM6, 200 µM: 82.43 ± 8.59%
N/TERT-1 cells
  toxicity to N/TERT-1 cells at tested concentration and exposure time: neither inhibit the viability of host cells
S. aureus USA300; peptides 60 mg/kg injected 1 h before 10^6 cfu, 37°C, 10 larvae per group, three biological replicates
  larvae surviving on day 5, S. aureus USA300: 23%
[2]
  decrease of phagocytosis of S. aureus into CD14+ monocytes: about 62.0 ± 6.80%
Staphylococcus aureus
  effect on hemolysis activity of S. aureus: nor was hemolysis activity markedly affected
[3]
  effect on total ATPase activity in HaCaT cells: could not detect any significant inhibition

## TAKGHYFVTTFYRNG [L15]
[1]
  Relative F-actin level in HaCaT: 0.83 ± 0.04
Lpl1
  direct interaction with Lpl1: interact directly
N/TERT-1 cells
  toxicity to N/TERT-1 cells at tested concentration and exposure time: neither inhibit the viability of host cells
S. aureus USA300; G. mellonella model
  reduction of lethality of S. aureus in the insect model: about 30%
[2]
  decrease of phagocytosis of S. aureus into CD14+ monocytes: about 22.6 ± 7.67%
[4]
  cytokine inducing activity in PBMCs: relatively inert
Staphylococcus aureus
  effect on hemolysis activity of S. aureus: nor was hemolysis activity markedly affected
[3]
  effect on total ATPase activity in HaCaT cells: could not detect any significant inhibition
